# Assay results: EPA's ToxRefDB 2
# How the values were obtained:
# [1] = test system: mouse; settings: Subchronic oral toxicity in rodents, other, Feed, dose end: 13 week, group: systemic, systemic / clinical chemistry / [other] / [other] + systemic / clinical chemistry / alderin epoxidase / alderin epoxidase + systemic / …
# [2] = test system: mouse; settings: Combined chronic toxicity/carcinogenicity; other; Oral; Feed; dose end: 104 week; group: systemic; systemic / pathology microscopic / blood / leukemia + systemic / pathology microscopic / blood / lymphoma nos + systemic / pathology …
# [3] = test system: rat; settings: Prenatal developmental toxicity study, sprague dawley, Oral, Gavage/Intubation, dose end: 15 GD
# [4] = test system: rat; settings: Subchronic oral toxicity in rodents, wistar, [Not Specified], dose end: 6 month
# [5] = test system: dog; settings: Chronic toxicity, beagle, Oral, Feed, dose end: 52 week
# [6] = test system: rat; settings: Chronic toxicity; wistar; Oral; Feed; dose end: 92 week; group: cholinesterase; cholinesterase / cholinesterase / cholinesterase / erythrocyte cholinesterase (che) + cholinesterase / cholinesterase / cholinesterase / …
# [7] = test system: rabbit; settings: Sub-acute repeat dose toxicity, Oral, Gavage/Intubation, dose end: 5 day, group: systemic
# [8] = test system: rabbit; settings: Sub-acute repeat dose toxicity; Oral; Gavage/Intubation; dose end: 5 day; group: systemic; systemic / in life observation / food consumption / food consumption
# [9] = test system: rabbit; settings: Prenatal developmental toxicity study, new zealand white, Oral, Gavage/Intubation, dose end: 19 GD
# [10] = test system: rat; settings: Subchronic oral toxicity in rodents, sprague dawley, Gavage/Intubation, dose end: 13 week, group: systemic, systemic / clinical chemistry / thyroxine (t4) / thyroxine (t4), total + systemic / organ weight / thyroid gland / absolute + systemic / …
# [11] = test system: rat; settings: Subchronic dermal toxicity, sprague dawley, Topical, dose end: 21 day, group: systemic
# [12] = group: developmental, developmental / developmental malformation / bone / short
# [13] = group: maternal, systemic / in life observation / body weight / body weight + systemic / in life observation / body weight / body weight gain + systemic / in…
# [14] = group: cholinesterase, cholinesterase / cholinesterase / cholinesterase / brain cholinesterase (che) + cholinesterase / cholinesterase / cholinesterase / …
# [15] = group: systemic, systemic / clinical chemistry / glucose / glucose + systemic / organ weight / liver / nos + systemic / organ weight / liver / relative to …
# [16] = group: systemic, systemic / organ weight / brain / nos + systemic / organ weight / kidney / nos
# [17] = group: cholinesterase, cholinesterase / cholinesterase / cholinesterase / plasma cholinesterase (che)
# [18] = group: systemic, systemic / pathology microscopic / lymph node / hemorrhage
# [19] = group: systemic, systemic / pathology microscopic / lymph node / hemorrhage + systemic / pathology microscopic / lymph node / hyperplasia
# [20] = systemic / in life observation / body weight / body weight + systemic / in life observation / food consumption / food consumption
# [21] = systemic / in life observation / food consumption / food consumption
# [22] = group: developmental, developmental / developmental malformation / brain / hydrocephaly + developmental / developmental malformation / mouth / jaw / cleft palate…
# [23] = group: maternal, systemic / in life observation / body weight / body weight gain + systemic / in life observation / food consumption / food consumption + …
# [24] = systemic / clinical chemistry / triiodothyronine (t3) / triiodothyronine (t3), total
smiles,measurement,setting,value
CC(=O)O[C@]1(C(C)=O)CC[C@H]2[C@@H]3C=C(Cl)C4=CC(=O)[C@@H]5C[C@@H]5[C@]4(C)[C@H]3CC[C@@]21C [Cyproterone acetate],LEL,[1],125 mg/kg/day
same,LOAEL,[1],> 125 mg/kg/day
same,NEL,[1],< 125 mg/kg/day
same,NOAEL,[1],≥ 125 mg/kg/day
same,LEL,[2],120 mg/kg/day
same,LOAEL,[2],> 120 mg/kg/day
same,NEL,[2],< 120 mg/kg/day
same,NOAEL,[2],≥ 120 mg/kg/day
COP(=S)(OC)Oc1ccc([N+](=O)[O-])c(C)c1 [Fenitrothion],LEL,[3]; [12],25 mg/kg/day
same,LOAEL,[3]; [12],25 mg/kg/day
same,NEL,[3]; [12],8 mg/kg/day
same,NOAEL,[3]; [12],8 mg/kg/day
same,LEL,[3]; [13],25 mg/kg/day
same,LOAEL,[3]; [13],25 mg/kg/day
same,NEL,[3]; [13],8 mg/kg/day
same,NOAEL,[3]; [13],8 mg/kg/day
same,LEL,[4]; [14],2 mg/kg/day
same,LOAEL,[4]; [14],9.16 mg/kg/day
same,NEL,[4]; [14],0.64 mg/kg/day
same,NOAEL,[4]; [14],1.83 mg/kg/day
same,LOAEL,[4]; [15],2 mg/kg/day
same,NOAEL,[4]; [15],0.64 mg/kg/day
same,LEL,[4]; [16],0.59 mg/kg/day
same,NEL,[4]; [16],< 0.59 mg/kg/day
same,LEL,[5]; [17],0.25 mg/kg/day
same,LOAEL,[5]; [17],0.25 mg/kg/day
same,NEL,[5]; [17],0.125 mg/kg/day
same,NOAEL,[5]; [17],0.125 mg/kg/day
same,LEL,[5]; [18],0.25 mg/kg/day
same,LOAEL,[5]; [18],0.25 mg/kg/day
same,NEL,[5]; [19],0.125 mg/kg/day
same,NOAEL,[5]; [19],0.125 mg/kg/day
same,LEL,[6],0.27 mg/kg/day
same,LOAEL,[6],0.27 mg/kg/day
same,NEL,[6],0.128 mg/kg/day
same,NOAEL,[6],0.128 mg/kg/day
O=C(N[C@@H](Cc1ccccc1)[C@@H](O)C(=O)N1C[C@@H](O)[C@@H](O)C1)c1cc2cc(Cl)ccc2[nH]1 [Ingliforib],LOAEL,[7]; [20],> 500 mg/kg/day
same,NOAEL,[7]; [20],≥ 500 mg/kg/day
same,LEL,[7]; [21],50 mg/kg/day
same,NEL,[7]; [21],< 50 mg/kg/day
same,LEL,[8],250 mg/kg/day
same,LOAEL,[8],> 500 mg/kg/day
same,NEL,[8],< 250 mg/kg/day
same,NOAEL,[8],≥ 500 mg/kg/day
S=C([S-])NCCNC(=S)[S-].[Na+].[Na+] [Nabam-sodium],LEL,[9]; [22],2.62 mg/kg/day
same,LOAEL,[9]; [22],2.62 mg/kg/day
same,NEL,[9]; [22],0.328 mg/kg/day
same,NOAEL,[9]; [22],0.328 mg/kg/day
same,LEL,[9]; [23],32.8 mg/kg/day
same,LOAEL,[9]; [23],32.8 mg/kg/day
same,NEL,[9]; [23],2.62 mg/kg/day
same,NOAEL,[9]; [23],2.62 mg/kg/day
same,LEL,[10],80 mg/kg/day
same,LOAEL,[10],80 mg/kg/day
same,NEL,[10],0.8 mg/kg/day
same,NOAEL,[10],0.8 mg/kg/day
same,LEL,[11]; [24],15 mg/kg/day
same,NEL,[11]; [24],< 15 mg/kg/day
same,NOAEL,"[11]; systemic / clinical chemistry / triiodothyronine (t3) / triiodothyronine (t3), total + systemic / in life observation / clinical signs / …",15 mg/kg/day
same,LOAEL,[11]; systemic / in life observation / clinical signs / erythema,150 mg/kg/day
